Data taken from ChEMBL document CHEMBL1152779, “Synthesis and applications of polyamine amino acid residues: improving the bioactivity of an analgesic neuropeptide, neurotensin” (J Med Chem, 2009).
pKd: −log10 of the molar value. Activity calls are given as the source filed them. No cut-off for these calls is given here. Numbered stars: 1 amine (or outer) side, 2 acyl side, 3 side chain; on linkers, the order of the positions; unused ones are H or OH. Square brackets hold non-standard residues; d marks the D form. Peptide text beside a SMILES is read from it. X1 = NCCCNCCCCNCCCNCCCNCCCC[C@H](N[*:1])C(=O)[*:2]; X2 = O=C([C@H](Cc1cccc2cc[nH]c12)N[*:1])[*:2]; NMeR = CN[C@@H](CCCNC(=N)N)C(=O)O; Tle = CC(C)(C)[C@H](N)C(=O)O

Legend:
Mus musculus [1] = assay: Analgesic activity against formalin-induced paw pain in mouse assessed as elimination of inflammatory phase at 4 mg/kg, ip 1 hr before formalin challenge; format: functional, organism-based; design: dose 4 mg/kg
Mus musculus [2] = assay: Analgesic activity against formalin-induced paw pain in mouse assessed as effect on duration of paw licking at 4 mg/kg, ip 1 hr before formalin challenge; format: functional, organism-based; design: dose 4 mg/kg
[3] = molecular target: Neurotensin receptor type 1 (Homo sapiens, UniProt P30989); assay: Binding affinity to human recombinant NTS1 in HEK293T cells by competitive binding assay; format: cell-based, HEK-293T
Sequence of Neurotensin receptor type 1 (P30989 whole entry): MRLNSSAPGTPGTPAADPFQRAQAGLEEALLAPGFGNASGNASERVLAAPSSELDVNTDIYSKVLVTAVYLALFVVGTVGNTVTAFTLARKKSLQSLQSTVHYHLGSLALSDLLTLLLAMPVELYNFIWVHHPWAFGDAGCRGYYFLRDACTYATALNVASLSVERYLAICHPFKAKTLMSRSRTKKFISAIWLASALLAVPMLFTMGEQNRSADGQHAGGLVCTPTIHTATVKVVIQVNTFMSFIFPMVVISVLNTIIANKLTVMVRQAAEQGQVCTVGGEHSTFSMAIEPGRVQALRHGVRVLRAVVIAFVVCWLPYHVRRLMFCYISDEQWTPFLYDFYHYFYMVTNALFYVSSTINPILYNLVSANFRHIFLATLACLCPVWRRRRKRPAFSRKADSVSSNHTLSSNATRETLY

SMILES	Activity (Mus musculus [1])	Activity (Mus musculus [2])	pKd [3]
CC[C@H](C)[C@H](NC(=O)[C@H](Cc1ccc(O)cc1)NC(=O)[C@@H]1CCCN1C(=O)[C@H](CCCCN)NC(=O)[C@H](CCCCN)NC(=O)[C@H](CCCCNCCCNCCCNCCCCNCCCN)NC(C)=O)C(=O)N[C@@H](CC(C)C)C(=O)O (Ac-[X1]KKPYIL-OH)	Active	Active	
CN[C@@H](CCCN=C(N)N)C(=O)N[C@@H](CCCCN)C(=O)N1CCC[C@H]1C(=O)N[C@@H](Cc1cccc2cc[nH]c12)C(=O)N[C@H](C(=O)N[C@@H](CC(C)C)C(=O)O)C(C)(C)C (H-[NMeR]KP[X2][Tle]L-OH)			8.81
CC[C@H](C)[C@@H]1NC(=O)[C@H](Cc2ccc(O)cc2)NC(=O)[C@@H]2CCCN2C(=O)[C@H](CCCCN)NC(=O)[C@H](CCCCN)NC(=O)[C@H](CC(C)C)NC(=O)[C@H]([C@@H](C)CC)NC(=O)[C@H](Cc2ccc(O)cc2)NC(=O)[C@@H]2CCCN2C(=O)[C@H](CCCCN)NC(=O)[C@H](CCCCN)NC(=O)[C@H](CC(C)C)NC1=O (cyclo(ILKKPYILKKPY))			6.82
